This is an account of results in PubChem BioAssay AID328 (DTP/NCI, 2004).

The assay concerns BDF1 mice, P388 leukemia ip, median survival T/C. The assay is described as follows: NCI In Vivo Anticancer Drug Screen. Data for tumor model P388 Leukemia (intraperitoneal) in B6D2F1 (BDF1) mice. The conditions noted are these: endpoint: median survival time, higher = longer survival. Put shortly:
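Mice carrying the transplantable tumour receive compound or vehicle. Survival is followed in each arm, and the treated measure is divided by the vehicle measure.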

The mark [1] stands for this setting: dose: 50.0 mg/kg/injection, schedule: Q01DX009 (ip), vehicle: saline with Tween-80.
[2] abbreviates: dose: 100.0 mg/kg/injection, schedule: Q01DX009 (ip), vehicle: saline with Tween-80.
Where [3] appears, read: dose: 200.0 mg/kg/injection, schedule: Q01DX009 (ip), vehicle: saline with Tween-80.
[4] abbreviates: dose: 50.0 mg/kg/injection, schedule: Q01DX009 (ip), vehicle: saline.
[5] abbreviates: dose: 50.0 mg/kg/injection, schedule: Q04DX003 (ip), vehicle: saline.
The mark [6] stands for this setting: dose: 100.0 mg/kg/injection, schedule: Q01DX009 (ip), vehicle: saline.
The mark [7] stands for this setting: dose: 100.0 mg/kg/injection, schedule: Q04DX003 (ip), vehicle: saline.
Setting [8] is: dose: 200.0 mg/kg/injection, schedule: Q01DX009 (ip), vehicle: saline.
Setting [9] is: dose: 200.0 mg/kg/injection, schedule: Q04DX003 (ip), vehicle: saline.
The mark [10] stands for this setting: dose: 400.0 mg/kg/injection, schedule: Q01DX009 (ip), vehicle: saline.
[11] abbreviates: dose: 400.0 mg/kg/injection, schedule: Q04DX003 (ip), vehicle: saline.
[12] abbreviates: dose: 25.0 mg/kg/injection, schedule: Q04DX003 (ip), vehicle: saline with Tween-80.
The mark [13] stands for this setting: dose: 100.0 mg/kg/injection, schedule: Q01DX009 (ip), vehicle: Klucel (hydroxypropylcellulose) (HPC).
Where [14] appears, read: dose: 200.0 mg/kg/injection, schedule: Q01DX009 (ip), vehicle: Klucel (hydroxypropylcellulose) (HPC).
Where [15] appears, read: dose: 100.0 mg/kg/injection, schedule: Q04DX003 (ip), vehicle: saline sonified.
Where [16] appears, read: dose: 200.0 mg/kg/injection, schedule: Q04DX003 (ip), vehicle: saline sonified.
Where [17] appears, read: dose: 25.0 mg/kg/injection, schedule: Q01DX009 (ip), vehicle: saline.
Setting [18] is: dose: 400.0 mg/kg/injection, schedule: Q01DX009 (ip), vehicle: saline with Tween-80.
[19] abbreviates: dose: 50.0 mg/kg/injection, schedule: Q01DX009 (ip), vehicle: Klucel (hydroxypropylcellulose) (HPC).
Setting [20] is: dose: 100.0 mg/kg/injection, schedule: Q04DX003 (ip), vehicle: Klucel (hydroxypropylcellulose) (HPC).
Setting [21] is: dose: 200.0 mg/kg/injection, schedule: Q04DX003 (ip), vehicle: Klucel (hydroxypropylcellulose) (HPC).
[22] abbreviates: dose: 25.0 mg/kg/injection, schedule: Q01DX009 (ip), vehicle: saline with Tween-80.

“And” between values parts separate entries of the source, which are not always exact repeats. Identical values can stand only once. Toxic doses and inconclusive results are not listed.

Regarding `N#CN=CN1CCN(c2ccccn2)CC1`, the T/C was 91 % of control under setting [1], 90 % of control under setting [2] and 93 % of control under setting [3].
Regarding `O=C(N[C@@H](c1ccccc1)[C@H](N=Cc1ccccc1)c1ccccc1)c1ccccc1`, the T/C runs as follows: under setting [4], 102 % of control; under setting [5], 91 % of control; under setting [6], 100 % of control; under setting [7], 92 % of control; under setting [8], 91 % of control; under setting [9], 91 % of control. Further, the T/C under setting [10] was 94 % of control and the T/C under setting [11] is 90 % of control.
For the molecule `O=CNc1ccccc1Cl`, the T/C was 112 % of control (dose: 100.0 mg/kg/injection, schedule: Q01DX001 (ip), vehicle: saline with Tween-80); 91 % of control (dose: 200.0 mg/kg/injection, schedule: Q01DX001 (ip), vehicle: saline with Tween-80); 91 % of control (dose: 400.0 mg/kg/injection, schedule: Q01DX001 (ip), vehicle: saline with Tween-80).
`CCOc1cc(C=Nc2cc(Cl)c(O)c(Cl)c2)ccc1N(CCCl)CCCl`: the T/C runs as follows: (dose: 16.0 mg/kg/injection, schedule: Q04DX003 (ip), vehicle: saline with Tween-80) 154 % of control; (dose: 16.5 mg/kg/injection, schedule: Q04DX003 (ip), vehicle: saline with Tween-80) 157 % of control; under setting [12], 173 % of control; (dose: 37.5 mg/kg/injection, schedule: Q04DX003 (ip), vehicle: saline with Tween-80) 207 % of control.
As for `C[N+](C)(CC(=O)Nc1ccc(Cl)c(Cl)c1)CC(=O)c1ccc(Cl)c(Cl)c1`, the T/C (dose: 400.0 mg/kg/injection, schedule: Q04DX003 (ip), vehicle: saline sonified) was 87 % of control.
In the case of `CC(=O)[C@H]1[C@H](C)C[C@H]2[C@@H]3CCC4=CC(=O)CC[C@]4(C)[C@@]3(F)[C@@H](O)C[C@@]21C`, the T/C is 105 % of control under setting [13]; 120 % of control (dose: 100.0 mg/kg/injection, schedule: Q04DX003 (ip), vehicle: alcohol); 115 % of control (dose: 132.0 mg/kg/injection, schedule: Q04DX003 (ip), vehicle: saline); 120 % of control under setting [14]; 104 % of control and 120 % of control under setting [9]; 110 % of control and 113 % of control (dose: 300.0 mg/kg/injection, schedule: Q04DX003 (ip), vehicle: saline). Besides, the T/C (dose: 400.0 mg/kg/injection, schedule: Q01DX009 (ip), vehicle: Klucel (hydroxypropylcellulose) (HPC)) was 120 % of control and the T/C (dose: 400.0 mg/kg/injection, schedule: Q04DX003 (ip), vehicle: alcohol) was 105 % of control.
In the case of `O=C(NO)c1ccc(O)cc1`, the T/C under setting [15] was 118 % of control; the T/C (dose: 132.0 mg/kg/injection, schedule: Q04DX003 (ip), vehicle: saline sonified) was 100 % of control; the T/C under setting [16] was 100 % of control.
For `COc1cc2c(cc1OCc1ccccc1)C(C#N)N(C(=O)c1ccccc1)C=C2` (stereo not drawn), the T/C is 109 % of control under setting [17]; 97 % of control (dose: 25.0 mg/kg/injection, schedule: Q04DX003 (ip), vehicle: saline); 100 % of control under setting [4]; 95 % of control under setting [5]; 97 % of control under setting [6]; 97 % of control under setting [7]. For the same molecule, the T/C runs as follows: under setting [8], 98 % of control; under setting [9], 88 % of control; under setting [10], 100 % of control; under setting [11], 94 % of control.
`CCN(CC)C(=O)Cn1cc(F)c(NC(C)=O)nc1=O`: the T/C was 90 % of control under setting [2]; 95 % of control under setting [7]; 105 % of control under setting [3]; 109 % of control under setting [9]; 110 % of control under setting [18]; 113 % of control under setting [11].
As to `O=S1(=O)C=Cc2ccccc21`, the T/C was 92 % of control under setting [19]; 100 % of control under setting [13]; 100 % of control under setting [20]; 107 % of control under setting [14]; 95 % of control under setting [21].
On to `ClCC1CNC(c2ccccc2)O1` (stereo not drawn), for which the T/C (dose: 12.5 mg/kg/injection, schedule: Q04DX003 (ip), vehicle: saline with Tween-80) is 101 % of control and the T/C under setting [12] was 104 % of control.
With `Nc1ncc(CNc2ccc(C(=O)NC(CCC(=O)O)C(=O)O)cc2)c(N)n1` (stereo not drawn), the T/C was 89 % of control and 115 % of control under setting [19]; 150 % of control under setting [14].
In the case of `CC(O)COCc1ccccc1` (stereo not drawn), the T/C was 100 % of control under setting [7], 87 % of control under setting [9] and 108 % of control under setting [11].
With `Fc1c(Cl)c(Cl)c(Cl)c(Cl)c1Cl`, the T/C was 104 % of control (dose: 44.0 mg/kg/injection, schedule: Q01DX009 (ip), vehicle: other); 100 % of control (dose: 66.0 mg/kg/injection, schedule: Q01DX009 (ip), vehicle: other); 95 % of control (dose: 100.0 mg/kg/injection, schedule: Q01DX009 (ip), vehicle: other); 100 % of control under setting [20]; 91 % of control (dose: 150.0 mg/kg/injection, schedule: Q01DX009 (ip), vehicle: other); 105 % of control under setting [3]. Besides, the T/C by setting is: under setting [21], 90 % of control; under setting [18], 90 % of control; (dose: 400.0 mg/kg/injection, schedule: Q04DX003 (ip), vehicle: Klucel (hydroxypropylcellulose) (HPC)) 100 % of control.
In the case of `O=C1/C(=C/c2ccccc2)Cc2ccccc21`, the T/C was 96 % of control under setting [22]; 96 % of control under setting [1]; 94 % of control under setting [2]; 107 % of control (dose: 100.0 mg/kg/injection, schedule: Q04DX003 (ip), vehicle: saline with Tween-80); 96 % of control under setting [3]; 100 % of control (dose: 200.0 mg/kg/injection, schedule: Q04DX003 (ip), vehicle: saline with Tween-80). The T/C (dose: 400.0 mg/kg/injection, schedule: Q04DX003 (ip), vehicle: saline with Tween-80) is 99 % of control.
With `CC1(O)Cn2c(nc3nccnc32)S1` (stereo not drawn), the T/C runs as follows: under setting [17], 107 % of control; under setting [4], 115 % of control; under setting [5], 108 % of control; under setting [7], 100 % of control.
Consider `C[C@]12CCC(=O)C=C1CC[C@@H]1[C@@H]2CC[C@@]2(C)[C@H]1CC[C@]2(C)O`, for which the T/C was 104 % of control (dose: 100.0 mg/kg/injection, schedule: Q01DX009 (sc), vehicle: steriod suspending solution); 105 % of control (dose: 100.0 mg/kg/injection, schedule: Q04DX003 (sc), vehicle: steriod suspending solution); 95 % of control (dose: 200.0 mg/kg/injection, schedule: Q01DX009 (sc), vehicle: steriod suspending solution); 90 % of control (dose: 200.0 mg/kg/injection, schedule: Q04DX003 (sc), vehicle: steriod suspending solution); 115 % of control (dose: 400.0 mg/kg/injection, schedule: Q04DX003 (sc), vehicle: steriod suspending solution).
As to `O=C1O/C(=C2\OCc3ccccc32)c2ccccc21`, the T/C reads like this: under setting [22], 100 % of control; under setting [1], 98 % of control; under setting [2], 98 % of control; under setting [3], 96 % of control.
On to `C/C(=N\O)c1ccc2ccc3ccccc3c2c1`, for which the T/C by setting is: (dose: 50.0 mg/kg/injection, schedule: Q04DX003 (ip), vehicle: saline sonified) 104 % of control; under setting [15], 104 % of control; under setting [16], 100 % of control.
With `C=C(Cl)CSCCCS`, the T/C reads like this: (dose: 130.0 mg/kg/injection, schedule: Q01DX009 (ip), vehicle: saline) 95 % of control; under setting [8], 104 % of control; (dose: 300.0 mg/kg/injection, schedule: Q01DX009 (ip), vehicle: saline) 118 % of control.
